{"source": "patent US7795305B2", "about": "“CDDO-compounds and combination therapies thereof” (Board of Regents, The University of Texas System, priority 2000, dated 2010)", "key": {"Daudi cells": {"tested_on": "Daudi cells", "assay": "cells", "experimental": "Suspension culture of leukemic cells. Leukemic cell lines were cultured at a density of 3.0×10^5 cells/mL, and AML mononuclear cells at 5×10^5 cells/mL in the presence or absence of indicated concentrations of CDDO-Me. Appropriate amounts of DMSO (final concentration<0.05%) was included as a control. For cytotoxicity studies, 1 μM ara-C was added to the cultures.\nCDDO-Me. […] Mechanism of growth inhibition was analyzed on cell cycle and apoptosis in HL-60 cells."}, "HL-60 cells": {"tested_on": "HL-60 cells", "assay": "Differentiation by CD11b/CD14 flow cytometry", "format": "cell-based, human", "conditions": "for CD11b %: 7 days; for percentage of CD14 (+) live cells (FCM): no ligand", "experimental": "(§1) Immunophenotyping. The PE-conjugated anti-CD11b, FITC-conjugated anti-CD14 monoclonal antibody (mAb) (Becton Dickinson) and PE-conjugated anti-CD95 mAb (PharMingen) were used at a 1/10 dilution.\nEnhancement in cellular differentiation using combinations of CDDO with ATRA were tested. […] Cell differentiation was analyzed by flow cytometry (CD14/CD11b staining). […] These experiments were repeated. […]\nFinally, the inventors examined if CDDO-Me combined with ATRA would enhance differentiation. […] […] Next, combined treatment with CDDO-Me and RXR-specific ligand were tested for potentiation of anti-leukemic effects."}, "primary AML cells": {"tested_on": "primary AML cells", "assay": "Monocytic differentiation (CD14) in primary AML", "format": "cell-based, human", "experimental": "as §1\n(§2) CDDO-Me. […] Effects of CDDO-Me were also tested on clonogenic AML cells."}, "AML progenitors": {"tested_on": "AML progenitors", "assay": "AML blast colony assay", "format": "cell-based, human", "experimental": "AML blast colony assay. A previously described method was used to measure AML blast colony formation. Briefly, 1×10^5 T-cell-depleted, nonadherent, low-density bone marrow cells were plated in 0.8% methylcellulose in Iscove's modified Dulbecco's medium (IMDM; Gibco Laboratories, Grand Island, N.Y.) supplemented with 10% fetal bovine serum and 15 ng/mL recombinant human granulocyte-macrophage colony-stimulating factor (hGM-CSF). CDDO or CDDO-Me was added at the initiation of cultures at concentrations ranging from 0.05 to 0.5 μg/mL. AML blast colonies were evaluated under a microscope on day 7 of culture in duplicate dishes.\n(§3) The effect of CDDO on clonogenic AML cells were tested. […] (FIG. 7).\nas §2"}, "normal CD34+ cells": {"tested_on": "normal CD34+ cells", "assay": "CFU-GM of normal CD34+ cells (CFU-GEMM assay)", "format": "cell-based, human", "conditions": "for CFU-GM generated from normal CD34+ cells detected: n=3", "experimental": "CFU-Granulocyte-Erythroid-Macrophage-Megakaryocyte (CFU-GEMM) Assay. In three experiments, 2×10^5 CD34^+ cells isolated from normal bone marrow (n=1) or G-CSF-stimulated peripheral blood (n=2) were plated in 0.8% methylcellulose with IMDM, 1 U/mL human erythropoietin (Terry Fox Laboratories, Vancouver, Canada), and 50 ng/mL recombinant hGM-CSF. CDDO-Me was added at the initiation of cultures at concentrations ranging from 0.05 to 0.5 μg/mL.\nas §3, §2"}, "U937 cells": {"tested_on": "U937 cells", "assay": "Atlas Cancer cDNA array, differential gene expression", "format": "cell-based, human", "conditions": "1 μM; CDDO 24 hrs, CDDO-Me 1 hour", "experimental": "The differential expression of a large number of genes involved in apoptosis, proliferation and signal transduction were analyzed utilizing the Atlas Cancer c-DNA array from Clontech (Palo Alto, Calif.). […] The downregulation of 17 genes (over two-fold) was seen, some of these genes were MAPKK5, STAT5A and B, DNA topoisomerase 2, VEGFR1 and VEGF. […] Differential expression of a large number of genes involved in apoptosis, proliferation and signal transduction was also performed for CDDO-Me. […] In preliminary studies, the inventors observed over two-fold downregulation of 23 genes: these include MAPK/ERK2, endothelin2, MLH1. Remarkably, decreased expression of VEGFR1, that potentially mediate pro-angiogenic properties of the leukemic cells, was observed (FIG. 33). […] The cDNA array data require conformation but may indicate what changes in gene expression contribute to the observed anti-leukemic effects of CDDO-Me."}, "[1]": {"text": "Subacute toxicity studies. An important aspect of this invention of CDDO-compounds and its combination therapies with other chemotherapeutics is to assess the toxicity and relative therapeutic efficacy of CDDO-compounds. The preliminary toxicity (i.e. determination of LD50 and MTD [maximum tolerated dose]) of CDDO-compounds was studied in healthy BALB/C mice (male and female, 25-30 g) after single i. v. or oral injections. Seven different dose levels (10 mice/dose level) were used after the appropriate pilot dosing experiments to define a MTD dose for both the oral and iv routes of administration. Animals were observed and weighed daily. The experiment was terminated on day 14. Surviving animals were sacrificed by exposure to carbon dioxide. The unit-dose effect line will be constructed and used to calculate lethal doses LD10 and LD50).\nDetermination of MTD. 60 female Balb/C mice divided into 12 groups of 5 mice. With 5 mice per dose level, six dose levels for IV or oral drug administration were used.\nIntravenous CDDO administration. Groups of mice received CDDO intravenously as a single bolus injection into the tail vein on Day 1. […] The typical organs from each mouse that are examined include brain, heart, lungs, spleen, pancreas, kidneys, liver, gastrointestinal tract, lymph nodes, muscle, bone marrow, and skin.\nIntravenous CDDO-Me administration. Groups of mice received CDDO-Me intravenously as a single bolus injection into the tail vein on Day 1. […] The typical organs from each mouse that are examined include brain, heart, lungs, spleen, pancreas, kidneys, liver, gastrointestinal tract, lymph nodes, muscle, bone marrow, and skin."}, "[2]": {"tested_on": "bone marrow endothelial cells", "assay": "Matrigel tube-like endothelial structure formation", "format": "cell-based", "experimental": "(§4) CDDO. PPARγ nuclear receptor is expressed in bone marrow endothelial cells, and PPARγ ligands inhibit inhibited endothelial cell proliferation. […] The present inventors therefore tested the effects of CDDO in endothelial cell assays. The formation of tube-like endothelial structures was performed using Matrigel®, a basement membrane matrix extracted from the Engelbreth-Holm Swarm mouse sarcoma cell line. Bone marrow endothelial cells with recombinant angiogenic cytokines were incubated in the presence or absence of CDDO, and formation of tube-like endothelial structures was assessed by direct observation using a inverted contrast-phase microscope. […] Vascular endothelial cells (HUVEC) were grown in EBM-2 or EGM-2 media (Clonetics) containing VEGF, EGF, bFGF and IGF-1. The proliferation of endothelial cells was assessed by inverted contrast-phase microscope after 24 hrs of CDDO exposure in the indicated concentrations. CDDO-Me. The formation of tube-like endothelial structures that are associated with angiogenesis was analyzed using a Matrigel system (Kubota et al., 1988). Capillary-like structure formation of bone marrow endothelium was inhibited by CDDO-Me. […] Thus, CDDO-Me also has anti-angiogenic effects."}, "[3]": {"tested_on": "vascular endothelial cells (HUVECs)", "assay": "Proliferation of cytokine-stimulated vascular endothelial cells ([3H]-Thymidine, microscopy)", "format": "cell-based", "experimental": "as §4"}}, "note": "Where two headings read alike, the source gives them in different places."}
{"smiles": "CC1(C)CCC2(C(=O)O)CCC3(C)C(C(=O)C=C4C5(C)C=C(C#N)C(=O)C(C)(C)C5CCC43C)C2C1", "note": "(centres unmarked) [CDDO, 2-cyano-3,12-dioxoolen-1,9-dien-28-oic acid]", "values": [{"measurement": "Daudi cells alive", "setting": "Daudi cells; 1 μM", "value": 73.6, "unit": "%"}, {"measurement": "viability at 2 µM", "setting": "Daudi cells; Homo sapiens, Daudi, read-out: viable cells", "value": 25.3, "unit": "%"}, {"measurement": "concentration needed to exert similar effect (CD11b+ as 0.1 μM CDDO-Me)", "setting": "HL-60 cells", "value": 1, "unit": "µM"}, {"measurement": "CD11b %", "setting": "HL-60 cells; 0.1 μM (DMSO control 24.9)", "value": 45.0, "unit": "%"}, {"measurement": "CD11b %", "setting": "HL-60 cells; 0.3 μM", "value": 75.9, "unit": "%"}, {"measurement": "percentage of CD14 (+) live cells (FCM)", "setting": "HL-60 cells; CDDO 0.5 μM", "value": 36.7, "unit": "%"}, {"measurement": "percentage of CD14 (+) live cells (FCM)", "setting": "HL-60 cells; CDDO 1 μM", "value": 80.4, "unit": "%"}, {"measurement": "concentration at which monocytic differentiation was induced", "setting": "HL-60 cells; HL-60 cells", "value": "0.5 to 1.0", "unit": "µM"}, {"measurement": "AML samples with induced monocytic differentiation (CD14)", "setting": "primary AML cells", "value": "3/11"}, {"measurement": "colony formation of AML progenitors reduced", "setting": "AML progenitors; 1 μM, n=6", "value": "58±4.6", "unit": "%"}, {"measurement": "CFU-GM of normal CD34+ cells inhibited by", "setting": "normal CD34+ cells; at this concentration (n=3)", "value": "26.8±4.3", "unit": "%"}, {"measurement": "number of genes downregulated over two-fold", "setting": "U937 cells", "value": 17}, {"measurement": "number of genes upregulated", "setting": "U937 cells", "value": 7}, {"measurement": "Diagnoses/observations", "setting": "[1]; mouse, in vivo, iv, 0.3 mg/kg", "value": "Myeloid hyperplasia bone marrow"}, {"measurement": "Diagnoses/observations", "setting": "[1]; mouse, in vivo, iv, 3 mg/kg", "value": "Myeloid hyperplasia, bone marrow"}, {"measurement": "formation of capillary-like structures by bone marrow endothelium", "setting": "[2]", "value": "potently inhibited the formation of capillary-like structures"}, {"measurement": "proliferation / structure formation of cytokine-stimulated vascular endothelial cells", "setting": "[3]", "value": "diminished the proliferation"}]}
{"smiles": "COC(=O)[C@]12CCC(C)(C)C[C@H]1[C@H]1C(=O)C=C3[C@@]4(C)C=C(C#N)C(=O)C(C)(C)[C@@H]4CC[C@@]3(C)[C@]1(C)CC2", "note": "[CDDO-Me]", "values": [{"measurement": "cell number, % of DMSO-controls", "setting": "Daudi cells; 0.3 μM, 48 hrs", "value": 22.5, "unit": "%"}, {"measurement": "CD11b+ cells", "setting": "HL-60 cells; 0.1 μM", "value": 86.6, "unit": "%"}, {"measurement": "CD11b+ cells", "setting": "HL-60 cells; 48 hrs, CDDO-Me 0.1 μM, ATRA 1 μM, alone or simultaneously (DMSO controls 40%)", "value": 67.4, "unit": "%"}, {"measurement": "AML samples with induced monocytic differentiation (CD14)", "setting": "primary AML cells", "value": "2/5"}, {"measurement": "surviving colonies", "setting": "AML progenitors; 0.1 μM", "value": "46.7%±6.6"}, {"measurement": "surviving colonies", "setting": "AML progenitors; 0.3 μM", "value": "27.5%±6.8"}, {"measurement": "surviving colonies", "setting": "AML progenitors; 0.5 μM", "value": "8.8%±3.8"}, {"measurement": "CFU-GM generated from normal CD34+ cells detected", "setting": "normal CD34+ cells; 0.1 μM", "value": "79±5.6", "unit": "%"}, {"measurement": "CFU-GM generated from normal CD34+ cells detected", "setting": "normal CD34+ cells; 0.5 μM", "value": "63.4±1.1", "unit": "%"}, {"measurement": "number of genes downregulated over two-fold", "setting": "U937 cells", "value": 23}, {"measurement": "number of genes upregulated", "setting": "U937 cells", "value": "Twenty-two"}, {"measurement": "Diagnoses/observations", "setting": "[1]; CDDO-Me IV single bolus, 1.0 mg/kg, 14 days", "value": "DIED @ 5 minutes"}, {"measurement": "Diagnoses/observations", "setting": "[1]; mouse, in vivo, iv", "value": "Myeloid hyperplasia bone marrow"}, {"measurement": "formation of capillary-like structures by bone marrow endothelium", "setting": "[2]", "value": "inhibited"}, {"measurement": "proliferation / structure formation of cytokine-stimulated vascular endothelial cells", "setting": "[3]", "value": "also inhibited"}]}
